Target: T1, Poly [ADP-ribose] polymerase tankyrase-2 (Homo sapiens, UniProt Q9H2K2)
T1 sequence (Q9H2K2 whole entry): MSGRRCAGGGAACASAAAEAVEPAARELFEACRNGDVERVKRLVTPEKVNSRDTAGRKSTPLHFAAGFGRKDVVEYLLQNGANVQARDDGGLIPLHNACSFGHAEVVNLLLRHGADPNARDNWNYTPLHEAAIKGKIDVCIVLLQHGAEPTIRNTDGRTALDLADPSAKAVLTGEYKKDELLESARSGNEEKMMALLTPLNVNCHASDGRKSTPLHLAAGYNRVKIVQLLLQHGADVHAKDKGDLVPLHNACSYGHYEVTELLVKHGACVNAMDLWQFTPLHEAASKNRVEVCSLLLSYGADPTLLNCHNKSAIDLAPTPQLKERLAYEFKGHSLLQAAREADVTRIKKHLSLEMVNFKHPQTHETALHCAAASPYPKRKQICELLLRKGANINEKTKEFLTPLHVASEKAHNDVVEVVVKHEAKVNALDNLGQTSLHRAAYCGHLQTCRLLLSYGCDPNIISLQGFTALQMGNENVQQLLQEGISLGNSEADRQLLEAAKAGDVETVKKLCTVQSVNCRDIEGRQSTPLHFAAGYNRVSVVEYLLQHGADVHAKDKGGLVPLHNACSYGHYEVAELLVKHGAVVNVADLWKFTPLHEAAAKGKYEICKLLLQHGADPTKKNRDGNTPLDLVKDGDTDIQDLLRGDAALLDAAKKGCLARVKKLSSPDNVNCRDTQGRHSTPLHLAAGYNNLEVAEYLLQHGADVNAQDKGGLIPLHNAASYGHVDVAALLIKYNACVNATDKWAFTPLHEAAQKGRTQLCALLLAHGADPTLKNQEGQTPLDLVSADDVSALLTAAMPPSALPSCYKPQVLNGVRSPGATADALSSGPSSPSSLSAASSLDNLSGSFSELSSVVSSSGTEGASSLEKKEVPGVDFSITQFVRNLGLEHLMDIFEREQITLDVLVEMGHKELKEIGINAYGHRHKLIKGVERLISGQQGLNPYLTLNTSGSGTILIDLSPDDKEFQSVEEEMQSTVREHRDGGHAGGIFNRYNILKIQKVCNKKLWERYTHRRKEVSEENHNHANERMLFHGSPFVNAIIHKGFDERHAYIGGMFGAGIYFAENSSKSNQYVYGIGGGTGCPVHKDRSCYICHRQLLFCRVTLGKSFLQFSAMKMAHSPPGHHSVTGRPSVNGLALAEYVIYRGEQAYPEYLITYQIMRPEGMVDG
Test: Biochemical Assay
Excerpt: IC50 calculations:XLfit (idbs) was used to determine the IC50-values in inhibition experiments. The following formula was chosen to fit the data points (Langmuir Binding Isotherm):fit=((A+(B*x))+[…]*(1−exp((−1*D)*x)))/D)), res=(y−fit)

Which IC50 does the source give for O=C(N[C@H]1C[C@H](c2nnc(-c3nccs3)n2-c2ccccc2F)C1)c1ccnc2cc(F)cnc12 [US11926614, Example 29] here?
Its IC50 is 2 nM.

Source: BindingDB's records for patent US11926614 (Oslo Universitetssykehus, 2024)
